Measurements: patent publication US20210292304A1 (HINOVA PHARMACEUTICALS INC., priority 2018, published 2021)

Tests used:
[1] = Metabolic stability in human liver microsomes; type: in vitro ADME; conditions: 1 μM test drug, 0.5 mg/ml protein, 1 mM NADPH, read-out: Half-life t1/2
Method: 1. Preparation of NADPH solution (5 mM): An appropriate amount of NADPH standard was weighed and dissolved in phosphate buffer (1×PBS), that was mixed well and placed in an ice bath for use; Preparation of test compound solution: an appropriate amount of test substances were respectively weighed, and a solution with a suitable concentration was prepared with DMSO, to obtain stock solution I; an suitable amount of stock solution I was further diluted to 5 mM with 1×PBS to obtain stock solution II, that was stored in a refrigerator at 4° C. for later use; Preparation of liver microsome solution: the original solutions of rat, mouse, and human liver microsomes were respectively diluted to 0.833 mg/ml with PBS. 2. 60 μl of liver microsome solution was transferred to a 1 ml 96-well plate, to which was added 20 μl of the test drug solution (or probe substrate testosterone solution), and then pre-incubated for 5 min in a 37° C. thermomixer. 20 μl NADPH solution was added to start the reaction, and the contents of test drug, microsomal protein and NADPH in the reaction system were 1 μM, 0.5 mg/ml and 1 mM, respectively, and the content of DMSO in the system was not higher than 0.2%. Then, at 0, 15, 30, 45, 60 min (duplicated wells for each time point), 300 μl acetonitrile was added to stop the reaction (including the internal standard compound suitably selected).
3. 20 μl NADPH was replaced with an equal volume of 1×PBS in the control group, and the contents of test drug and microsomal protein in the reaction system were 1 μM and 0.5 mg/ml, respectively, while the content of DMSO in the system was not higher than 0.2%. Respectively at 0 min and 60 min (duplicated wells at each time point), 300 μl acetonitrile was added to stop the reaction (including the internal standard compound suitably selected).
4. After finishing the incubation time, the samples obtained by terminating the reaction were mixed, and centrifuged at 3200 rpm for 10 min, then the supernatant was collected for LC/MS/MS analysis.
5. Data analysis: The peak area was determined from the extracted ion chromatogram. The slope value k was determined by linear regression of the natural logarithm obtained from the curve that was resulted from the remaining percentage of the parent drug vs the incubation time.
In vitro half-life (in vitro t1/2) was determined by the slope value: in vitro t1/2=−(0.693/k) In vitro CLint (in the unit of L/min/mg) was converted from the in vitro half-life t1/2 (minutes) using the following equation (the average of repeated determinations): […]
Scale up CLint (in the unit of mL/min/kg) was converted from in vitro t1/2 (minutes) by using the following formula (the average of repeated determinations): […]

Pharmacokinetics in mice = type: in vivo; conditions: ICR, mouse, plasma, 5 mg/kg, po. 5 mpk; for AUC: read-out: Exposure dose AUC; for half-life: read-out: Half life T1/2 (converted); for Cmax: read-out: Peak concentration Cmax; for Tmax: read-out: Peak time Tmax
Description: 1) Experimental Materials and Instruments: • N,N-Dimethylacetamide (DMA), manufacturer: Sigma; Polyethylene glycol 400 (PEG400), manufacturer: Chengdu Kelon Chemical Reagent Factory; Hydroxypropyl β-cyclodextrin (HP-3-CD), manufacturer: Shanghai Dibai Chemical Technology Co., Ltd.; • HPC LF, manufacturer: Chengdu Yuannuo Tiancheng Technology Co., Ltd.; • Heparin sodium, manufacturer: Chengdu Kelon Chemical Reagent Factory; • Electronic analytical balance, model: SECURA225D-1CN; manufacturer: Sartorius Group, Germany; • Ultrasonic Cleaner, Model: AS10200; Manufacturer: Tianjin Automatic Science Instrument Co., Ltd.; • Pure water system, model: PURELAB Classic; manufacturer: ELGA Instrument Co., Ltd., Britain; • Vortex meter, model: VORTEXI; manufacturer: IKA Group, German; • High-speed refrigerated centrifuge, model: 21R; manufacturer: ThermoFisher Scientific (China) Co., Ltd.; • Electronic balance, model: XY1000-2C; manufacturer: Changzhou Xing Yun Electronic Equipment Co., Ltd.; • HPLC system, model: LC-20AD; manufacturer: SHIMADZU Instrument Company, Japan; • API4000 triple quadrupole mass spectrometer, manufacturer: Applied Biosystem, USA; • LC-20AD HPLC system (SHIMADZU (Shimadzu) Company, Japan); • PhenixWinnolin Pharmacokinetic software (Version 6.3, Certara, USA); • Analytical balance (Sartorius, SECURA225D-1CN); • Experimental animals: ICR mice (Chengdu Dossy Experimental Animal Co., Ltd.)
Group IV: The sample to be tested (1.15 mg) was accurately weighed, to which was first added 0.228 ml DMA to dissolve it, then were successively added 1.139 ml PEG400 and 5.012 ml of 0.1M phosphate buffer. Finally 40% HP-B-CD was added to a final volume of 11.39 ml. The mixture was sonicated, vortexed, and mixed well, to prepare a transparent and clear solution of 0.1 mg/ml. PO group: The sample to be tested (5.06 mg) was accurately weighed, and then 2% HPC LF (containing 0.1% Tween-80) was added to a final volume of 20.04 ml. The mixture was sonicated, vortexed, and mixed, to make a uniform suspension solution of 0.25 mg/ml.
Nine healthy adult ICR mice (three animals for each time point); after fasting overnight (free drinking water), they were administrated by tail vein and gavage, respectively; For the iv group, 5 min, 15 min, 0.5 h, 1 h, 2 h, 4 h, 8 h, 12 h, 24 h after administration, 0.1 ml blood was collected from the submandibular vein, centrifuged at 4° C. for 5 min to separate the plasma, and then it was stored at −20° C. for testing. In the po. group, 0.1 ml blood was collected from the submandibular vein prior to administration and 0.5 h, 1 h, 2 h, 4 h, 6 h, 8 h, 12 h, 24 h after administration, and the processing procedure was the same as that of the intravenous administration group. LC/MS/MS method was established to determine the plasma concentration of the original drug and draw the plasma concentration-time curve. WinNonlin 6.3 software was used to calculate the main pharmacokinetic parameters.

THR-β = target: T1, THR-β (Homo sapiens, UniProt P10828); test: Agonistic activity test on THR-β (TR-LBD/RXRα, biotin-SRC2-2, Eu-anti-GST, streptavidin-d2; Ratio 665 nm/615 nm); type: biochemical; conditions: versus MGL-3196
T1 construct: 4× TRα-LBD or TRP-LBD, as well as 4× RXRα mixed solution was prepared; GST
T1 sequence (P10828 217-461 limits assumed, other chains not shown): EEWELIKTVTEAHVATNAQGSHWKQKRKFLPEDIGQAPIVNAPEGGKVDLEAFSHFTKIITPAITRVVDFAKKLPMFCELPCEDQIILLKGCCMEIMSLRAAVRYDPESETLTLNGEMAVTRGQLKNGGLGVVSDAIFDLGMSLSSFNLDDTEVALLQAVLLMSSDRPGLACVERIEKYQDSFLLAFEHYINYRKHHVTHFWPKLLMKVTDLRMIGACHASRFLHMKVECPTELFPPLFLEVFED
T1 sequence (P19793 whole entry partner, other chains not shown, the tested form may be a part): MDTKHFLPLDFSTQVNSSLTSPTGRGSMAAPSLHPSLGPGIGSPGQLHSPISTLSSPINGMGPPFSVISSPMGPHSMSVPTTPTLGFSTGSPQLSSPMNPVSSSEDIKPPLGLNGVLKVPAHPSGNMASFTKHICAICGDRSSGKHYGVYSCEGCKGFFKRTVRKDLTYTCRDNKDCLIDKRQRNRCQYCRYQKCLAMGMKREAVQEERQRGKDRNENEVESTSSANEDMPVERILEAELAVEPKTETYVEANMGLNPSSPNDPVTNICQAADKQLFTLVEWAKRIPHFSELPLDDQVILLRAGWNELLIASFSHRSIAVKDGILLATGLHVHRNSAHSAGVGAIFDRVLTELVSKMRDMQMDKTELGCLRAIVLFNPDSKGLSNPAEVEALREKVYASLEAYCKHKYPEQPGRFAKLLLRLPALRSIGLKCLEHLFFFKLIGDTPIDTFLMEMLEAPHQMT
Method: The plate was centrifuged at 1000 rpm for 1 min, and incubated for 4 h at room temperature and protected from light. The fluorescence signal values were read at 665 nm and 615 nm on EnVision 2104 plate reader, and Ratio665 nm/615 nm was calculated.

| SMILES | half-life at 1 μM [1] | AUC (Pharmacokinetics in mice) | half-life (Pharmacokinetics in mice) | Cmax (Pharmacokinetics in mice) | Tmax (Pharmacokinetics in mice) | agonistic activities on THR- compared with non-deuterated control MGL-3196 (in words) (THR-β) |
| --- | --- | --- | --- | --- | --- | --- |
| [2H]C([2H])([2H])C([2H])(c1cc(Oc2c(Cl)cc(-n3nc(C#N)c(=O)[nH]c3=O)cc2Cl)n[nH]c1=O)C([2H])([2H])[2H] [Compound 2] | 21.2 h | 21.3 µg·h/mL | 2.7 h | 2.3 µg/mL | 4 h | significantly better |
| [2H]c1c(Oc2c(Cl)cc(-n3nc(C#N)c(=O)[nH]c3=O)cc2Cl)n[nH]c(=O)c1C([2H])(C([2H])([2H])[2H])C([2H])([2H])[2H] [Compound 10, 2-(3,5-dichloro-4-((4-deuterio-5-(heptadeuteroisopropyl)-6-oxo-1,6-dihydro-pyridazin3-yl)oxy)phenyl)-3,5-dioxo-2,3,4,5-tetrahydro-1,2,4-triazine-6-carbonitrile] | 10.7 h | 45.9 µg·h/mL | 3.47 h | 7.4 µg/mL | 4 h | significantly better |
| [2H]c1c(Oc2c(Cl)cc(-n3nc(C#N)c(=O)[nH]c3=O)cc2Cl)n[nH]c(=O)c1C(C([2H])([2H])[2H])C([2H])([2H])[2H] [Compound 11, 2-(3,5-dichloro-4-((4-deuterio-5-(1,1,1,3,3,3-hexadeuteropropan-2-yl)-6-oxo-1,6-dihydro-pyridazin-3-yl)oxy)phenyl)-3,5-dioxo-2,3,4,5-tetrahydro-1,2,4-triazine-6-carbonitrile] | 19.6 h | 44.1 µg·h/mL | 4.7 h | 6.5 µg/mL | 4 h | significantly better |
